From patent US10670605B2, “Cysteine reactive probes and uses thereof” (The Scripps Research Institute, priority 2015, dated 2020)
Blank lines part the entries; values can stand above or below the molecule they belong to.

Key:
Assay in all cases: Competitive isoTOP-ABPP, cell lysates
Type in all cases: binding
PDIA6 C55 (Q15084) = biological target: T1, PDIA6 C55 (Q15084) (Homo sapiens, UniProt Q15084); details: 500 μM
T1 sequence (Q15084 20-440): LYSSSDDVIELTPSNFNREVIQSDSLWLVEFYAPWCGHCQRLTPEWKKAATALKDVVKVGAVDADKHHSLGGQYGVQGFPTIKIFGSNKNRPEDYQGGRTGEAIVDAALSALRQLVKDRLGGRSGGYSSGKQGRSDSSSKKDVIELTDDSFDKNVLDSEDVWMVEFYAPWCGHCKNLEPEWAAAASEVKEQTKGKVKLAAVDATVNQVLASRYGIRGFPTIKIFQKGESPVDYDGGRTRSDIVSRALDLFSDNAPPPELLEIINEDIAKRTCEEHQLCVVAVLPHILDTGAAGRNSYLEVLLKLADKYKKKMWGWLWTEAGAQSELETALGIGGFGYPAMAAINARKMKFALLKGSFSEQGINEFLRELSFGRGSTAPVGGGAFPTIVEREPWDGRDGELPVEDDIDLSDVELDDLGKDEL

SMARCC2 C145 (Q8TAQ2) = SMARCC2 C145 (Q8TAQ2) (Homo sapiens, UniProt Q8TAQ2); details: 500 μM
DCUN1D1 C115 (Q96GG9) = DCUN1D1 C115 (Q96GG9) (Homo sapiens, UniProt Q96GG9); details: 500 μM, invitro
SAMHD1 C522 (Q9Y3Z3) = SAMHD1 C522 (Q9Y3Z3) (Homo sapiens, UniProt Q9Y3Z3); details: 500 μM
STAT3 C259 (P40763) = STAT3 C259 (P40763) (Homo sapiens, UniProt P40763); details: 500 μM
AIP C122 (O00170) = biological target: T2, AIP C122 (O00170) (Homo sapiens, UniProt O00170); details: 500 μM
T2 sequence (O00170 1-330): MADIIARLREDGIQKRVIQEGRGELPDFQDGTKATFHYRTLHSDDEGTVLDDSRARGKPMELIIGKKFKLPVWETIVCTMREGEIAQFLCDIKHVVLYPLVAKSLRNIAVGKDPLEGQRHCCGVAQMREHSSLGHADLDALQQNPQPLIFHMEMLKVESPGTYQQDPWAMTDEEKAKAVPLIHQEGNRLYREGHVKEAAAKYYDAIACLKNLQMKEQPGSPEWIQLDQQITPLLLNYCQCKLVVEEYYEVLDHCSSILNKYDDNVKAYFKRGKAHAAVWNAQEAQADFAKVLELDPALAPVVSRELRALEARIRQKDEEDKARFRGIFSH

UBE2L3 C86 (P68036) = UBE2L3 C86 (P68036) (Homo sapiens, UniProt P68036); details: 500 μM
ACAT1 C196 (P24752) = biological target: T3, ACAT1 C196 (P24752) (Homo sapiens, UniProt P24752); details: 500 μM
T3 sequence (P24752 34-427): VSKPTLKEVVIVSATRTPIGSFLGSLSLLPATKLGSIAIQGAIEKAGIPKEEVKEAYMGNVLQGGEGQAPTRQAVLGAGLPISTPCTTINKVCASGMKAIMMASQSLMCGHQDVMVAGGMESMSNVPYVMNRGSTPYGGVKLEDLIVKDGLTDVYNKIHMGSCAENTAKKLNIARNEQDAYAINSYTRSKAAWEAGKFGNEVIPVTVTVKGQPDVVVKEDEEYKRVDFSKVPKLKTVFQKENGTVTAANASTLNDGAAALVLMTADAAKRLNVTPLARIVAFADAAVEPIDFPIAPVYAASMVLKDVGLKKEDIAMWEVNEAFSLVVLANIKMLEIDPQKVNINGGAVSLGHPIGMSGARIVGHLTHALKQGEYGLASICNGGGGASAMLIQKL

ACAT1 C413 (P24752) = biological target: T4, ACAT1 C413 (P24752) (Homo sapiens, UniProt P24752); details: 500 μM
T4 sequence (P24752 34-427): T3 sequence (P24752 34-427)

ACAT1 C126 (P24752) = biological target: T5, ACAT1 C126 (P24752) (Homo sapiens, UniProt P24752); details: 500 μM
T5 sequence (P24752 34-427): T3 sequence (P24752 34-427)

R value (DMSO/fragment) (PDIA6 C55 (Q15084); in vitro, MDA-MB-231): 17.9
R value (DMSO/fragment) (PDIA6 C55 (Q15084); invitro, ramos): 14.9
R value (DMSO/fragment) (SMARCC2 C145 (Q8TAQ2); in vitro, MDA-MB-231): 9.7
R value (DMSO/fragment) (SMARCC2 C145 (Q8TAQ2); invitro, ramos): 6.6
R value (DMSO/fragment) (DCUN1D1 C115 (Q96GG9); ramos): 5.5
R value (DMSO/fragment) (SAMHD1 C522 (Q9Y3Z3); in vitro, MDA-MB-231): 2.6
R value (DMSO/fragment) (STAT3 C259 (P40763); in vitro, MDA-MB-231): 2.5
R value (DMSO/fragment) (STAT3 C259 (P40763); invitro, ramos): 2.9
R value (DMSO/fragment) (AIP C122 (O00170); in vitro, MDA-MB-231): 7.0
R value (DMSO/fragment) (AIP C122 (O00170); invitro, ramos): 3.1
R value (DMSO/fragment) (UBE2L3 C86 (P68036); in vitro, MDA-MB-231): 1.2
R value (DMSO/fragment) (UBE2L3 C86 (P68036); invitro, ramos): 3.0
R value (DMSO/fragment) (ACAT1 C196 (P24752); in vitro, MDA-MB-231): 1.7
R value (DMSO/fragment) (ACAT1 C196 (P24752); invitro, ramos): 3.1
R value (DMSO/fragment) (ACAT1 C413 (P24752); in vitro, MDA-MB-231): 15.3
R value (DMSO/fragment) (ACAT1 C413 (P24752); invitro, ramos): 20.0
R value (DMSO/fragment) (ACAT1 C126 (P24752); in vitro, MDA-MB-231): 2.6
R value (DMSO/fragment) (ACAT1 C126 (P24752); invitro, ramos): 2.4
Compound: O=C(CCl)Nc1cc(C(F)(F)F)cc(C(F)(F)F)c1 [compound 3]

isoTOP-ABPP ratio Q15084_C55 (PDIA6 C55 (Q15084); invitro, 231): 20.0
isoTOP-ABPP ratio Q8TAQ2_C145 (SMARCC2 C145 (Q8TAQ2); invitro, 231): 4.2
isoTOP-ABPP ratio, Q96GG9_C115 (DCUN1D1 C115 (Q96GG9); 231): 1.3
isoTOP-ABPP ratio, Q96GG9_C115 (DCUN1D1 C115 (Q96GG9); ramos): 1.0
isoTOP-ABPP ratio, Q9Y3Z3_C522 (SAMHD1 C522 (Q9Y3Z3); invitro, 231): 1.8
isoTOP-ABPP ratio, P40763_C259 (STAT3 C259 (P40763); invitro, 231): 3.4
isoTOP-ABPP ratio, O00170_C122 (AIP C122 (O00170); invitro, ramos): 1.7
isoTOP-ABPP ratio, P68036_C86 (UBE2L3 C86 (P68036); invitro, 231): 1.1
isoTOP-ABPP ratio, P68036_C86 (UBE2L3 C86 (P68036); invitro, ramos): 0.4
isoTOP-ABPP ratio, P24752_C196 (ACAT1 C196 (P24752); invitro, 231): 2.5
isoTOP-ABPP ratio, P24752_C196 (ACAT1 C196 (P24752); invitro, ramos): 1.7
isoTOP-ABPP ratio P24752_C413 (ACAT1 C413 (P24752); invitro, 231): 13.0
isoTOP-ABPP ratio P24752_C413 (ACAT1 C413 (P24752); invitro, ramos): 1.6
isoTOP-ABPP ratio, P24752_C126 (ACAT1 C126 (P24752); invitro, 231): 3.2
isoTOP-ABPP ratio, P24752_C126 (ACAT1 C126 (P24752); invitro, ramos): 1.5
Compound: O=C(CCl)N1CCN(S(=O)(=O)c2ccccc2F)CC1 [compound 10]
